The values that follow come from patent US20120101099A1, “HISTONE DEACETYLASE INHIBITORS” (ANTHEM BIOSCIENCES PRIVATE LIMITED, priority 2009, published 2012).

In one data set the test system is PC-3. Put plainly: Cell proliferation assay (MTT). The conditions noted are these: Homo sapiens, PC-3; Table 1; MTT, 48 hours; read-out: Cell growth inhibition (GI50 in μM) PC-3. Type of data set: cell-based. The method, then: (§1) Cells were seeded in a 96-well cell culture plates at a concentration of 10,000 cells per well and incubated at 37° C. in CO2 incubator.
(§2) Twenty-four hours later cells were treated with different concentrations (100, 10, 1, 0.1, and 0.01 μM) of compound dissolved in DMSO and incubated for 48 hours. For To measurement, 24 hours after seeding the cells, 20 μL of 3-(4.5-dimethyl-2- thiazolyl)-2,5-diphenyl-2H-tetrazolium (MTT) solution per well was added to the T0 plate and incubated for 3 hours at 37° C. in a CO2 incubator.
(§3) The plate containing cells and test compounds was treated similarly after 48 hours of incubation. After 3 hours of MTT addition, well contents were aspirated carefully followed by addition of 100 μL DMSO per well. Plates were agitated to ensure dissolution of the formazan crystals in DMSO and absorbance was read at 570 nm (A570). […] From the percentage growths a dose response curve was generated and GI50 values were interpolated from the growth curves.

For the next data set, the system named is PA-1. Put plainly: Cell proliferation assay (MTT). Type of data set: cell-based. The note with it: Homo sapiens, Table 1, MTT, 48 hours, read-out: Cell growth inhibition (GI50 in μM) PA-1. As to the method: as §1, §2, §3
A further data set deals with A549. The experiment in a line: Cell proliferation assay (MTT). Type of data set: cell-based. The conditions noted are these: Homo sapiens, A549; Table 1; MTT, 48 hours; read-out: Cell growth inhibition (GI50 in μM) A549. The method, then: as §1, §2, §3
The test system of data set [1] is human HDAC (Hela cells nuclear extract). The experiment in a line: HDAC activity screening, Hela nuclear extract, Boc-Lys(Ac)-AMC substrate. Type of data set: biochemical. The conditions noted are these: Hela nuclear extract; for HDAC % Inhibition (1 μM): 1 μM compound; for HDAC % Inhibition (10 μM): 10 μM compound; for IC50: read-out: IC50 (50% HDAC inhibitory concentration), Table 2. As to the method: To study the human HDAC inhibition the in-house 96 well plate assay have been established using fluorescent substrate (Boc-Lys (Ac)-AMC Substrate). Hela cells nuclear extract have been used as enzyme source.
Assay was performed in 96-well black microplate and total volume of the assay was 100 μL. Hela nuclear extract was diluted HDAC assay buffer (final concentration of 3.0 μg/mL). Enzyme mixture was made of 10 μL of diluted enzyme and 30 μL of HDAC buffer. 40 μl of enzyme mixture followed by 10 μL of test compound (final concentration from 0.01 to 10 μM) or vehicle (control) was added to each well. The plate was pre-incubated at 37° C. for 10 minutes. The HDAC reaction was started by adding 50 μl of HDAC substrate Boc-Lys (Ac)-AMC (Anaspec, Inc Fremont, Calif., USA). The plate was incubated at 37° C. for 45 minutes. The reaction was stopped by adding 50 μL of Trypsin stop solution and plate further incubated at 37° C. for 15 minutes. Measuring the fluorescence at excitation wavelength of 360 nm and emission wavelength of 460 nm monitored the release of AMC. Buffer alone and substrate alone served as blank.

A short description of data set [2]: Oral bioavailability and pharmacokinetics studies. In kind it is in vivo, male Balb/c mice. As to the method:
The studies were performed to determine the oral bioavailability and pharmacokinetics of test compounds in male Balb/c mice. Study was performed after obtaining the Institutional Animal Ethics Committee (IAEC) permission. Mice aged 5 to 6 weeks weighing around 25 to 30 g were used for this study. The animals were fasted overnight with free access to water. Animals were administered test compounds by oral route at a 50 mg/kg body weight (formulation: 0.5% methylcellulose in water and 0.1% tween 80. Dose volume 10 ml/kg b.w.) or intravenous route at a dose 10 mg/kg b.w. […] (formulation: 0.9% saline. Dose volume 10 ml/kg b.w.) Blood samples were collected at various time points during the next 24 hours post dose. The blood samples were centrifuged at 3000 g for 5 minutes at 4° C. and the corresponding plasma samples were collected in clean pre-labeled tubes. Then, each sample was subjected to a suitable extraction method and analysed by LC-MS/MS (API 3200 LC-MS/MS system). Data was analyzed using WinNonlin version 5.2 (Pharsight).

Another data set relates to NCI-H460. The experiment in a line: Cell proliferation assay (MTT). The conditions noted are these: Homo sapiens, Table 1, MTT, 48 hours, read-out: Cell growth inhibition (GI50 in μM) NCI H460. Type of data set: cell-based. As to the method:
as §1, §2, §3

A further data set concerns HT-29. The experiment in a line: Cell proliferation assay (MTT). In kind it is cell-based. The conditions noted are these: Homo sapiens, HT-29; Table 1; MTT, 48 hours; read-out: Cell growth inhibition (GI50 in μM) HT-29. As to the method:
as §1, §2, §3

Where [3] appears, read: plasma, oral 50 mg/kg, male Balb/c mouse.

The structures appear in SMILES notation. Where a name gives a salt, the structure may show the parent alone.

As to `CN(C)Cc1ccc(-c2cn(Cc3ccc(C(=O)NO)cc3)nn2)cc1` [Example 10, 4-[4-(4-Dimethylaminomethyl-phenyl)-[1,2,3]triazol-1-ylmethyl]-N-hydroxy-benzamide], the results for the GI50 in the data set with PC-3, with PA-1 and in the data set with A549 were 18.5 ± 10.2 µM, 0.1 ± 0.02 µM and 3.2 ± 1.4 µM, respectively. For the same compound, the “HDAC % Inhibition (1 μM)” value in data set [1] is 96%. Moreover, the “HDAC % Inhibition (10 μM)” value in data set [1] is 100%. Moreover, the IC50 in data set [1] came out at 25 nM.

With `CCN(CC)CCc1ccc(-c2cn(Cc3ccc(C(=O)NO)cc3)nn2)cc1` [Example 11, 4-{4-[4-(2-Diethylamino-ethyl)-phenyl]-[1,2,3]triazol-1-ylmethyl}-N-hydroxy-benzamide], in data set [1], the IC50 stood at 18.6 nM. For the same compound, in data set [2] (compared with SAHA, oral), the “times higher AUC” value worked out at 9 times and the “times longer terminal half life” value was found to be 2 times.

`CCN(CC)Cc1ccc(-c2cn(Cc3ccc(C(=O)NO)cc3)nn2)c(F)c1` [Example 13, 4-[4-(4-Diethylaminomethyl-2-fluoro-phenyl)-[1,2,3]triazol-1-ylmethyl]-N-hydroxy-benzamide]: the IC50 in data set [1] worked out at 19.1 nM. In data set [2] (plasma, oral 50 mg/kg vs intravenous, male Balb/c mouse), the bioavailability (commonly dose-corrected exposure relative to a reference, in per cent) amounted to 68 ± 6%. In data set [2] (setting [3]), the AUC(0-t) – broadly, exposure summed from dosing to a finite time, without extrapolation to infinity – amounted to 3340 ng·h/mL; the Cmax – broadly, the peak of the concentration-time curve – was determined as 3360 ng/mL; the Tmax – broadly, the time at which the peak concentration occurs – turned out to be 4.8 min; the half-life (commonly the time in which the quantity being followed falls by half) was 2 h.

Turning to `O=C(/C=C/c1ccc(Cn2cc(-c3ccc(CN4CCOCC4)cc3)nn2)cc1)NO` [Example 20], the GI50 (as a rule, the concentration giving 50% growth inhibition) in the data set with PC-3 came out at 12.7 ± 5.6 µM. In addition, the GI50 in the data set with PA-1 is 0.16 ± 0.02 µM. Besides, the 50% growth inhibitory concentration (GI50) in the data set with A549 stood at 2.9 ± 1.8 µM. In data set [1], the “HDAC % Inhibition (1 μM)” value was found to be 96%, the “HDAC % Inhibition (10 μM)” value turned out to be 100% and the IC50 was 19 nM.

In the case of `O=C(/C=C/c1cccc(Cn2cc(-c3ccccc3)nn2)c1)NO` [Example 22, (E)-N-Hydroxy-3-[3-(4-phenyl-[1,2, 3]triazol-1-ylmethyl)-phenyl]-acrylamide], the GI50 with PC-3 was determined as 0.6 ± 0.6 µM; in the data set with NCI-H460 it was 0.1 ± 0.2 µM; with PA-1, 0.01 µM; in the data set on HT-29, 0.5 ± 0.4 µM. Moreover, the “HDAC % Inhibition (1 μM)” value in data set [1] was 92%. For the same compound, the “HDAC % Inhibition (10 μM)” value in data set [1] is recorded as 96%.

As for `O=C(/C=C/c1cccc(Cn2cc(-c3ccc(CN4CCCC4)cc3)nn2)c1)NO` [Example 26, N-Hydroxy-3-{3-[4-(4-pyrrolidin-1-ylmethyl-phenyl)-[1,2,3]triazol-1-ylmethyl]-phenyl}-acrylamide hydrochloride], in the data set with PC-3, the GI50 was determined as 9.4 ± 6.2 µM. In addition, the 50% growth inhibitory concentration (GI50) with PA-1 came out at 0.03 µM. For the same compound, in the data set with A549, the GI50 stood at 0.9 ± 0.3 µM. Besides, in data set [1], the “HDAC % Inhibition (1 μM)” value came out at 99%, the “HDAC % Inhibition (10 μM)” value amounted to 99% and the IC50 was found to be 1 nM.

With `CN(C)Cc1ccc(-c2cn(Cc3cccc(/C=C/C(=O)NO)c3)nn2)cc1` [Example 27, 3-{3-[4-(4-Dimethylaminomethyl-phenyl)-[1,2,3]triazol-1-ylmethyl]-phenyl}-N-hydroxy-acrylamide hydrochloride], the GI50 in the data set with PC-3 is 4.5 ± 5.7 µM. The GI50 in the data set with PA-1 came out at 0.02 µM. Besides, the GI50 with A549 was 0.4 ± 0.2 µM. Further, in data set [1], the “HDAC % Inhibition (1 μM)” value is given as 99%, the “HDAC % Inhibition (10 μM)” value is 99% and the IC50 is 1 nM.
